The target of the test is T1, recombinant human neutral endopeptidase (NEP, EC 3.4.24.11) (Homo sapiens, UniProt P08473).
T1 construct: made in house; host or cells: insect cells
As to the kind of experiment: in vitro inhibition of recombinant human neutral endopeptidase (fluorescence lifetime assay). In kind it is biochemical. The settings on record: 1 hour pre-incubation, read after 1 hour at room temperature, pH 7.4, substrate Cys(PT14)-Arg-Arg-Leu-Trp-OH 0.7 μM. An excerpt: The activity of a compound according to the present invention can be assessed by the following in vitro & in vivo methods and/or by the following in vitro & in vivo methods well-described in the art. See A fluorescence lifetime-based assay for protease inhibitor profiling on human kallikrein 7 Doering K, Meder G, Hinnenberger M, Woelcke J, Mayr L M, Hassiepen U Biomol Screen. 2009 January; 14(1):1-9.
In particular, the in vitro inhibition of recombinant human neutral endopeptidase (NEP, EC 3.4.24.11) can be determined as follows:
Recombinant human neutral endopeptidase (expressed in insect cells and purified using standard methods, final concentration 7 pM) is pre-incubated with test compounds at various concentrations for 1 hour at room temperature in 10 mM sodium phosphate buffer at pH 7.4, containing 150 mM NaCl and 0.05% (w/v) CHAPS. The enzymatic reaction is started by the addition of a synthetic peptide substrate Cys(PT14)-Arg-Arg-Leu-Trp-OH to a final concentration of 0.7 μM. Substrate hydrolysis leads to an increase fluorescence lifetime (FLT) of PT14 measured by the means of a FLT reader as described by Doering et al. (2009). The effect of the compound on the enzymatic activity was determined after 1 hour (t=60 min) incubation at room temperature. The IC50 values, corresponding to the inhibitor concentration showing 50% reduction of the FLT values measured in absence of inhibitor, are calculated from the plot of percentage of inhibition vs. inhibitor concentration using non-linear regression analysis software.

The structures appear in SMILES notation.

T1 sequence (P08473 whole entry): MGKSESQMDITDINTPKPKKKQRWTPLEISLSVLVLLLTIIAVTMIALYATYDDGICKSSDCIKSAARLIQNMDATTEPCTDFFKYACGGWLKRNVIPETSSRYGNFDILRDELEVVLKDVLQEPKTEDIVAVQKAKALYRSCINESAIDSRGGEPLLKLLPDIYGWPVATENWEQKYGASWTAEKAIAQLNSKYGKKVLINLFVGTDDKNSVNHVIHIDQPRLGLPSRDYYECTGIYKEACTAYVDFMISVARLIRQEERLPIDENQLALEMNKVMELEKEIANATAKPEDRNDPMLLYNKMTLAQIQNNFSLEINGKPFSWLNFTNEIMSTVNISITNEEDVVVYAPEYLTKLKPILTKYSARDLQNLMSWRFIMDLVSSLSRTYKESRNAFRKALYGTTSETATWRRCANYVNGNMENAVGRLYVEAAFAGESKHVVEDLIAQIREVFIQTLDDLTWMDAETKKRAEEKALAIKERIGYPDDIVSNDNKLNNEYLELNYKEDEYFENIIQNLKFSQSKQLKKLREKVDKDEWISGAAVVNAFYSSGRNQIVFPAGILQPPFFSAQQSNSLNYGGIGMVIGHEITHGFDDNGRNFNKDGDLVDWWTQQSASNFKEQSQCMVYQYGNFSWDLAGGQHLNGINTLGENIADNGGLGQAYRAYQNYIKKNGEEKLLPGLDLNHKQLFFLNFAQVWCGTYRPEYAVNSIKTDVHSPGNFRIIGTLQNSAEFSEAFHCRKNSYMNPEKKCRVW

With `O=C(O)CC1(C(=O)N[C@@H](Cc2ccc(-c3ccccc3)cc2)C(=O)N2CCC[C@H]2C(=O)O)CCCC1` [Example 1-1, (S)-1-((S)-3-(biphenyl-4-yl)-2-(1-(carboxymethyl)cyclopentanecarboxamido)propanoyl)pyrrolidine-2-carboxylicacid], the IC50 is 12 nM.

As to `O=C(O)CC1(C(=O)N[C@@H](Cc2ccc(-c3ccccc3)cc2)C(=O)O)CCCC1` [Example 1-7], the IC50 is 15 nM.

As to `O=C(O)CC1(C(=O)N[C@@H](Cc2ccc(-c3ccccc3Cl)cc2)c2nnn[nH]2)CCCC1` [Example 8-1], the IC50 is 6 nM.

In the case of `Cc1cccc(-c2ccc(C[C@H](NC(=O)C3(CC(=O)O)CCCC3)c3nnn[nH]3)cc2)c1` [Example 9-1, (S)-2-(1-(2-(3′-methylbiphenyl-4-yl)-1-(1H-tetrazol-5-yl)ethylcarbamoyl)cyclopentyl)acetic acid], the half-inhibitory concentration (IC50) was 40 nM.

As for `COc1cccc(-c2ccc(C[C@H](NC(=O)C3(CC(=O)O)CCCC3)c3nnn[nH]3)cc2)c1` [Example 9-2], the IC50 came to 11 nM.

For `O=C(O)CC1(C(=O)N[C@@H](Cc2ccc(-c3ccccc3)cc2)c2nnn[nH]2)CCCC1` [Example 31-2, {1-[(S)-2-Biphenyl-4-yl-1-(1H-tetrazol-5-yl)-ethylcarbamoyl]-cyclopentyl}-acetic acid], the IC50 is 10 nM.

The values above are taken from patent US8877815B2, “Substituted carbamoylcycloalkyl acetic acid derivatives as NEP” (Novartis AG, priority 2010, dated 2014).
